System: subjects with advanced hematologic malignancies (R/R AML or MDS)
Assay: ascending multiple dose escalation clinical trial (safety and tolerability, oral administration)
Type: in vivo, human
Conditions: ongoing study
Description: An ascending multiple dose escalation clinical trial of the compound shown below is conducted. It is primarily intended to evaluate the safety and tolerability of the compound shown below when administered orally to subjects with advanced hematologic malignancies, specifically relapsed or refractory acute myeloid leukemia (R/R AML) or myelodysplastic syndrome (MDS).
In this ongoing study, clinically significant signs and symptoms associated with blood cell differentiation have been reported for one of 21 subjects with acute myeloid leukemia treated with the compound shown above. This occurred approximately 7-14 days into the treatment with the compound shown above.

COC[C@H](NC(=O)c1ccn(S(C)(=O)=O)c1)C(=O)Nc1nc(-c2cccc(N3C[C@@H](C)O[C@@H](C)C3)n2)cs1
subjects with clinically significant signs and symptoms associated with blood cell differentiation (subjects with acute myeloid leukemia treated orally with the compound): one of 21
time of occurrence of the clinically significant signs and symptoms associated with blood cell differentiation, into the treatment (the one affected subject with acute myeloid leukemia): 7 to 14 days

Source: patent US20250241931A1, “METHODS OF TREATING A SUBJECT HAVING CLINICALLY SIGNIFICANT SIGNS AND SYMPTOMS ASSOCIATED WITH BLOOD CELL DIFFERENTIATION” (FOGHORN THERAPEUTICS INC., priority 2022, published 2025)
